According to patent US12187746B2, “C26-linked rapamycin analogs as mTOR inhibitors” (Revolution Medicines, Inc., priority 2018, dated 2025):

How the values were obtained:
P-P70S6K (T389) = test: Cell based AlphaLISA assay, inhibition of P-P70S6K (T389) in MDA-MB-468 cells; details: Homo sapiens, 4 h, 0.017-1,000 nM, two to four hours at 37° C., AlphaLisa SureFire Ultra, read-out: pIC50 for Inhibition of mTORC1 and mTORC2 Substrate Phosphorylation, p-P70S6K-(T389) (converted)
Description: (§1) Cell Based AlphaLISA Assays For Determining IC50 For Inhibition of P-Akt (S473), P-4E-BP1 (T37/46), and P-P70S6K (T389) in MDA-MB-468 Cells
(§2) mTOR Kinase Cellular Assay
(§3) To measure functional activity of mTORC1 and mTORC2 in cells the phosphorylation of 4EBP1 (Thr37/46) and P70S6K (Thr389), and AKT1/2/3 (Ser473) was monitored using AlphaLisa SureFire Ultra Kits (Perkin Elmer). […] Incubations are terminated by removal of the assay buffer and addition of lysis buffer provided with the assay kit. Samples are processed according to the manufacturer's instructions. The Alpha signal from the respective phosphoproteins is measured in duplicate using a microplate reader (Envision, Perkin-Elmer or Spectramax M5, Molecular Devices). Inhibitor concentration response curves are analyzed using normalized IC50 regression curve fitting with control based normalization.

P-4E-BP1 (T37/46) = test: Cell based AlphaLISA assay, inhibition of P-4E-BP1 (T37/46) in MDA-MB-468 cells; details: Homo sapiens, 4 h, 0.017-1,000 nM, two to four hours at 37° C., AlphaLisa SureFire Ultra, read-out: pIC50 for Inhibition of mTORC1 and mTORC2 Substrate Phosphorylation, p-4E-BP1-(T37/46) (converted)
Description: as §1, §2, §3

P-Akt (S473) = test: Cell based AlphaLISA assay, inhibition of P-Akt (S473) in MDA-MB-468 cells; details: Homo sapiens, 4 h, 0.017-1,000 nM, two to four hours at 37° C., AlphaLisa SureFire Ultra, read-out: pIC50 for Inhibition of mTORC1 and mTORC2 Substrate Phosphorylation, p-AKT1/2/3-(S473) (converted)
Description: as §1, §2, §3

| Compound | IC50 (P-P70S6K (T389)) [nM] | IC50 (P-4E-BP1 (T37/46)) [nM] | IC50 (P-Akt (S473)) [nM] |
| --- | --- | --- | --- |
| CO[C@H]1C[C@@H]2CC[C@@H](C)[C@@](O)(O2)C(=O)C(=O)N2CCCC[C@H]2C(=O)O[C@H]([C@H](C)C[C@@H]2CC[C@@H](O)[C@H](OC)C2)C[C@@H](O)[C@H](C)/C=C(\C)[C@@H](O)[C@@H](OC)C(=NOCC(=O)N2CCc3nc(N4CCN(c5ncc(C(=O)NCCOCCOCCOCCC(=O)N6CCc7cc(Cn8nc(-c9cnc%10[nH]ccc%10c9)c9c(N)ncnc98)ccc7C6)cn5)CC4)ncc3C2)[C@H](C)C[C@H](C)/C=C/C=C/C=C/1C [Example 19] | 1 to 10 | 3.16 to 31.6 | > 1000 |
| CO[C@H]1C[C@@H]2CC[C@@H](C)[C@@](O)(O2)C(=O)C(=O)N2CCCC[C@H]2C(=O)O[C@H]([C@H](C)C[C@@H]2CC[C@@H](O)[C@H](OC)C2)C[C@@H](O)[C@H](C)/C=C(\C)[C@@H](O)[C@@H](OC)C(=NOCC(=O)NCc2cnc(N3CCN(c4ncc(C(=O)NCCOCCOCCOCCC(=O)NCCCCn5nc(-c6ccc7oc(N)nc7c6)c6c(N)ncnc65)cn4)CC3)nc2)[C@H](C)C[C@H](C)/C=C/C=C/C=C/1C [Example 20] | 1 to 10 | 3.16 to 31.6 | > 1000 |
| CO[C@H]1C[C@@H]2CC[C@@H](C)[C@@](O)(O2)C(=O)C(=O)N2CCCC[C@H]2C(=O)O[C@H]([C@H](C)C[C@@H]2CC[C@@H](O)[C@H](OC)C2)C[C@@H](O)[C@H](C)/C=C(\C)[C@@H](O)[C@@H](OC)C(=NOCC(=O)NCc2cnc(N3CCN(c4ncc(C(=O)NCCOCCOCCOCCC(=O)N5CCc6cc(Cn7nc(-c8cnc9[nH]ccc9c8)c8c(N)ncnc87)ccc6C5)cn4)CC3)nc2)[C@H](C)C[C@H](C)/C=C/C=C/C=C/1C [Example 21] | 1 to 10 | 3.16 to 31.6 | > 1000 |
| CO[C@H]1C[C@@H]2CC[C@@H](C)[C@@](O)(O2)C(=O)C(=O)N2CCCC[C@H]2C(=O)O[C@H]([C@H](C)C[C@@H]2CC[C@@H](O)[C@H](OC)C2)C[C@@H](O)[C@H](C)/C=C(\C)[C@@H](O)[C@@H](OC)C(=NOCC(=O)NCc2cnc(N3CCN(C(=O)CN(C)CC(=O)NCCOCCOCCC(=O)NCCCCn4nc(-c5cnc6[nH]ccc6c5)c5c(N)ncnc54)CC3)nc2)[C@H](C)C[C@H](C)/C=C/C=C/C=C/1C [Example 22] | 1 to 10 | 31.6 to 1000 | > 1000 |
| CO[C@H]1C[C@@H]2CC[C@@H](C)[C@@](O)(O2)C(=O)C(=O)N2CCCC[C@H]2C(=O)O[C@H]([C@H](C)C[C@@H]2CC[C@@H](O)[C@H](OC)C2)C[C@@H](O)[C@H](C)/C=C(\C)[C@@H](O)[C@@H](OC)C(=NOCC(=O)N2CCc3nc(N4CCN(C(=O)CCOCCOCCOCCOCCC(=O)NCCCCn5nc(-c6ccc7oc(N)nc7c6)c6c(N)ncnc65)CC4)ncc3C2)[C@H](C)C[C@H](C)/C=C/C=C/C=C/1C [Example 23] | 1 to 10 | 3.16 to 31.6 | 31.6 to 1000 |
| CO[C@H]1C[C@@H]2CC[C@@H](C)[C@@](O)(O2)C(=O)C(=O)N2CCCC[C@H]2C(=O)O[C@H]([C@H](C)C[C@@H]2CC[C@@H](O)[C@H](OC)C2)C[C@@H](O)[C@H](C)/C=C(\C)[C@@H](O)[C@@H](OC)C(=NOCC(=O)NCc2cnc(N3CCN(C(=O)CN(C)CC(=O)NCCOCCOCCC(=O)NCCCCn4nc(-c5ccc6oc(N)nc6c5)c5c(N)ncnc54)CC3)nc2)[C@H](C)C[C@H](C)/C=C/C=C/C=C/1C [Example 24] | 1 to 10 | 31.6 to 1000 | 31.6 to 1000 |
| CO[C@H]1C[C@@H]2CC[C@@H](C)[C@@](O)(O2)C(=O)C(=O)N2CCCC[C@H]2C(=O)O[C@H]([C@H](C)C[C@@H]2CC[C@@H](O)[C@H](OC)C2)C[C@@H](O)[C@H](C)/C=C(\C)[C@@H](O)[C@@H](OC)C(=NOCC(=O)NCc2cnc(N3CCN(C(=O)CN(C)CC(=O)NCCOCCOCCC(=O)N4CCc5cc(Cn6nc(-c7ccc8oc(N)nc8c7)c7c(N)ncnc76)ccc5C4)CC3)nc2)[C@H](C)C[C@H](C)/C=C/C=C/C=C/1C [Example 25] | 1 to 10 | 31.6 to 1000 | > 1000 |
| CO[C@H]1C[C@@H]2CC[C@@H](C)[C@@](O)(O2)C(=O)C(=O)N2CCCC[C@H]2C(=O)O[C@H]([C@H](C)C[C@@H]2CC[C@@H](O)[C@H](OC)C2)C[C@@H](O)[C@H](C)/C=C(\C)[C@@H](O)[C@@H](OC)C(=NOCC(=O)NCCOCCC(=O)N2CCc3nc(N4CCN(c5ncc(C(=O)N6CCc7cc(Cn8nc(-c9ccc%10oc(N)nc%10c9)c9c(N)ncnc98)ccc7C6)cn5)CC4)ncc3C2)[C@H](C)C[C@H](C)/C=C/C=C/C=C/1C [Example 26] | 1 to 10 | 3.16 to 31.6 | > 1000 |
| CO[C@H]1C[C@@H]2CC[C@@H](C)[C@@](O)(O2)C(=O)C(=O)N2CCCC[C@H]2C(=O)O[C@H]([C@H](C)C[C@@H]2CC[C@@H](O)[C@H](OC)C2)C[C@@H](O)[C@H](C)/C=C(\C)[C@@H](O)[C@@H](OC)C(=NOCC(=O)NCCOCCOCCOCCOCCC(=O)N2CCN(c3ncc(C(=O)NCCCCn4nc(-c5ccc6oc(N)nc6c5)c5c(N)ncnc54)cn3)CC2)[C@H](C)C[C@H](C)/C=C/C=C/C=C/1C [Example 27] | 1 to 10 | 3.16 to 31.6 | 31.6 to 1000 |
| CO[C@H]1C[C@@H]2CC[C@@H](C)[C@@](O)(O2)C(=O)C(=O)N2CCCC[C@H]2C(=O)O[C@H]([C@H](C)C[C@@H]2CC[C@@H](O)[C@H](OC)C2)C[C@@H](O)[C@H](C)/C=C(\C)[C@@H](O)[C@@H](OC)C(=NOCC(=O)NCCOCCOCCOCCOCCOCCOCCC(=O)N2CCC(N3CCC(C(=O)N4CCc5cc(Cn6nc(-c7ccc8oc(N)nc8c7)c7c(N)ncnc76)ccc5C4)CC3)CC2)[C@H](C)C[C@H](C)/C=C/C=C/C=C/1C [Example 28] | 1 to 10 | 3.16 to 31.6 | 31.6 to 1000 |
| CO[C@H]1C[C@@H]2CC[C@@H](C)[C@@](O)(O2)C(=O)C(=O)N2CCCC[C@H]2C(=O)O[C@H]([C@H](C)C[C@@H]2CC[C@@H](O)[C@H](OC)C2)C[C@@H](O)[C@H](C)/C=C(\C)[C@@H](O)[C@@H](OC)C(=NOCC(=O)NCc2cnc(N3CCN(C(=O)CCOCCN4CCN(c5ncc(C(=O)NCCCCn6nc(-c7ccc8oc(N)nc8c7)c7c(N)ncnc76)cn5)CC4)CC3)nc2)[C@H](C)C[C@H](C)/C=C/C=C/C=C/1C [Example 29] | 1 to 10 | 3.16 to 31.6 | 31.6 to 1000 |
| CO[C@H]1C[C@@H]2CC[C@@H](C)[C@@](O)(O2)C(=O)C(=O)N2CCCC[C@H]2C(=O)O[C@H]([C@H](C)C[C@@H]2CC[C@@H](O)[C@H](OC)C2)C[C@@H](O)[C@H](C)/C=C(\C)[C@@H](O)[C@@H](OC)C(=NOCC(=O)NCc2cnc(N3CCN(C(=O)CCOCCN4CCN(c5ncc(C(=O)N6CCc7cc(Cn8nc(-c9ccc%10oc(N)nc%10c9)c9c(N)ncnc98)ccc7C6)cn5)CC4)CC3)nc2)[C@H](C)C[C@H](C)/C=C/C=C/C=C/1C [Example 30] | < 1 | 3.16 to 31.6 | > 1000 |
| CO[C@H]1C[C@@H]2CC[C@@H](C)[C@@](O)(O2)C(=O)C(=O)N2CCCC[C@H]2C(=O)O[C@H]([C@H](C)C[C@@H]2CC[C@@H](O)[C@H](OC)C2)C[C@@H](O)[C@H](C)/C=C(\C)[C@@H](O)[C@@H](OC)C(=NOCC(=O)NCc2cnc(N3CCN(C(=O)CCOCCN4CCN(c5ncc(C(=O)N6CCc7cc(Cn8nc(-c9cnc%10[nH]ccc%10c9)c9c(N)ncnc98)ccc7C6)cn5)CC4)CC3)nc2)[C@H](C)C[C@H](C)/C=C/C=C/C=C/1C [Example 31] | < 1 | 3.16 to 31.6 | > 1000 |
| CO[C@H]1C[C@@H]2CC[C@@H](C)[C@@](O)(O2)C(=O)C(=O)N2CCCC[C@H]2C(=O)O[C@H]([C@H](C)C[C@@H]2CC[C@@H](O)[C@H](OC)C2)C[C@@H](O)[C@H](C)/C=C(\C)[C@@H](O)[C@@H](OC)C(=NOCC(=O)NCc2cnc(N3CCN(C(=O)CCOCCN4CCN(c5ncc(C(=O)N6CCC(n7nc(-c8ccc9oc(N)nc9c8)c8c(N)ncnc87)CC6)cn5)CC4)CC3)nc2)[C@H](C)C[C@H](C)/C=C/C=C/C=C/1C [Example 32] | < 1 | 3.16 to 31.6 | 3.16 to 31.6 |
| COc1ccc(-c2ccc3ncc4c(c3c2)n(-c2ccc(N3CCN(c5ncc6c(n5)CCN(C(=O)c5cnc(N7CCN(CCOCCC(=O)N8CCN(c9ncc(CNC(=O)CON=C%10[C@H](C)C[C@H](C)/C=C/C=C/C=C(\C)[C@@H](OC)C[C@@H]%11CC[C@@H](C)[C@@](O)(O%11)C(=O)C(=O)N%11CCCC[C@H]%11C(=O)O[C@H]([C@H](C)C[C@@H]%11CC[C@@H](O)[C@H](OC)C%11)C[C@@H](O)[C@H](C)/C=C(\C)[C@@H](O)[C@H]%10OC)cn9)CC8)CC7)nc5)C6)CC3)c(C(F)(F)F)c2)c(=O)n4C)cn1 [Example 33] | 10 to 1000 | > 1000 | > 1000 |
